Measurements taken from the CheMixHub viscosity set.

Experiment: xn = mol fraction of the nth substance listed

CCCC(C)=O + C1CCCC1
viscosity [mPa·s], 101.33 kPa
Conditions | 293.15 K | 298.15 K | 303.15 K
x2 = 0.0411 | 0.49 | 0.463 | 0.44
x2 = 0.0966 | 0.481 | 0.455 | 0.431
x2 = 0.1985 | 0.471 | 0.445 | 0.422
x2 = 0.3214 | 0.458 | 0.433 | 0.41
x2 = 0.3876 | 0.452 | 0.428 | 0.406
x2 = 0.5026 | 0.443 | 0.419 | 0.398
x2 = 0.6097 | 0.436 | 0.414 | 0.392
x2 = 0.6934 | 0.433 | 0.41 | 0.39
x2 = 0.7996 | 0.429 | 0.407 | 0.387
x2 = 0.9054 | 0.429 | 0.406 | 0.386
x2 = 0.9515 | 0.433 | 0.41 | 0.389

CCCC(C)=O + C1CCCCC1
viscosity [mPa·s]
Conditions | 293.15 K | 298.15 K | 303.15 K
101.32 kPa, x2 = 0.1524 | – | – | 0.474
101.32 kPa, x2 = 0.2942 | – | – | 0.496
101.32 kPa, x2 = 0.3752 | – | – | 0.507
101.32 kPa, x2 = 0.4326 | – | – | 0.517
101.32 kPa, x2 = 0.5075 | – | – | 0.532
101.32 kPa, x2 = 0.5951 | – | – | 0.555
101.32 kPa, x2 = 0.7377 | – | – | 0.607
101.32 kPa, x2 = 0.8891 | – | – | 0.695
101.33 kPa, x2 = 0.0483 | 0.5 | 0.473 | 0.447
101.33 kPa, x2 = 0.0981 | 0.506 | 0.477 | 0.452
101.33 kPa, x2 = 0.1932 | 0.516 | 0.486 | 0.458
101.33 kPa, x2 = 0.296 | 0.537 | 0.504 | 0.476
101.33 kPa, x2 = 0.3957 | 0.562 | 0.528 | 0.498
101.33 kPa, x2 = 0.4987 | 0.594 | 0.554 | 0.52
101.33 kPa, x2 = 0.5982 | 0.625 | 0.591 | 0.548
101.33 kPa, x2 = 0.7002 | 0.68 | 0.632 | 0.594
101.33 kPa, x2 = 0.8051 | 0.748 | 0.694 | 0.645
101.33 kPa, x2 = 0.9024 | 0.847 | 0.781 | 0.724
101.33 kPa, x2 = 0.9503 | 0.898 | 0.826 | 0.762

CCN(CC)CC + C1CCCCC1
303.15 K, 101 kPa
Conditions | viscosity [mPa·s]
x1 = 0.01021 | 0.8057
x1 = 0.01915 | 0.7913
x1 = 0.0299 | 0.7725
x1 = 0.04221 | 0.7556
x1 = 0.04976 | 0.7402
x1 = 0.0618 | 0.7264
x1 = 0.07115 | 0.7134
x1 = 0.07987 | 0.7009
x1 = 0.08947 | 0.6879
x1 = 0.09947 | 0.6772

ClC(Cl)(Cl)Cl + C1CCCCC1
Conditions | viscosity [mPa·s]
298 K, 101 kPa, x1 = 0.2753 | 0.8903
298 K, 101 kPa, x1 = 0.3845 | 0.8916
298 K, 101 kPa, x1 = 0.4418 | 0.8924
298 K, 101 kPa, x1 = 0.4727 | 0.8928
298 K, 101 kPa, x1 = 0.58 | 0.8943
298 K, 101 kPa, x1 = 0.6707 | 0.8955
298 K, 101 kPa, x1 = 0.6805 | 0.8956
298 K, 101 kPa, x1 = 0.7701 | 0.8969
298 K, 101 kPa, x1 = 0.864 | 0.8982
298 K, 101.3 kPa, x1 = 0.1774 | 0.847
298 K, 101.3 kPa, x1 = 0.3265 | 0.831
298 K, 101.3 kPa, x1 = 0.5278 | 0.836
298 K, 101.3 kPa, x1 = 0.6746 | 0.844
298 K, 101.3 kPa, x1 = 0.8521 | 0.86
298.15 K, 101 kPa, x1 = 0.272 | 0.858
298.15 K, 101 kPa, x1 = 0.5295 | 0.8568
298.15 K, 101 kPa, x1 = 0.7707 | 0.867
298.15 K, 101.33 kPa, x1 = 0.272 | 0.858
298.15 K, 101.33 kPa, x1 = 0.5 | 0.8551
298.15 K, 101.33 kPa, x1 = 0.5295 | 0.8568
298.15 K, 101.33 kPa, x1 = 0.625 | 0.8594
298.15 K, 101.33 kPa, x1 = 0.7707 | 0.867
318 K, 101.3 kPa, x1 = 0.1636 | 0.6445
318 K, 101.3 kPa, x1 = 0.3244 | 0.6522
318 K, 101.3 kPa, x1 = 0.5293 | 0.667
318 K, 101.3 kPa, x1 = 0.6744 | 0.6869
318 K, 101.3 kPa, x1 = 0.8658 | 0.7148
